Reference: ChEMBL document CHEMBL1201862, “PubChem BioAssay data set” (2004)
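Cells were grown in 96-well plates and exposed to each compound for 48 hours at five concentrations; endpoints were interpolated linearly between bracketing concentrations, or set to the highest concentration if not reached. GI50 marks 50% less growth.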 Activity calls are given as the source filed them. No stated cut-off is given here; in the data, active = GI50 up to about 1.1 µM and inactive = higher.

Tests used:
Test in all cases: NCI anticancer screen, dose series, 48 h
COLO 205 = tested on: COLO 205
SK-MEL-2 = tested on: SK-MEL-2
K562 = tested on: K562
TK-10 = tested on: TK-10
EKVX = tested on: EKVX
PC-3 = tested on: PC-3
OVCAR-8 = tested on: OVCAR-8
OVCAR-3 = tested on: OVCAR-3
786-0 = tested on: 786-0
LOX IMVI = tested on: LOX IMVI
MDA-N = tested on: MDA-N
NCI-H522 = tested on: NCI-H522
OVCAR-5 = tested on: OVCAR-5
SR = tested on: SR
UACC-257 = tested on: UACC-257
SF-539 = tested on: SF-539
HT-29 = tested on: HT-29
T47D = tested on: T47D
A498 = tested on: A498
MOLT-4 = tested on: MOLT-4
HCT-15 = tested on: HCT-15
Malme-3M = tested on: Malme-3M
NCI/ADR-RES = tested on: NCI/ADR-RES
CAKI-1 = tested on: CAKI-1
A549 = tested on: A549
SK-OV-3 = tested on: SK-OV-3
HL-60 = tested on: HL-60
HCT-116 = tested on: HCT-116
DU-145 = tested on: DU-145
MDA-MB-231 = tested on: MDA-MB-231
SN12C = tested on: SN12C
IGROV-1 = tested on: IGROV-1
RPMI-8226 = tested on: RPMI-8226
SNB-75 = tested on: SNB-75
CCRF-CEM = tested on: CCRF-CEM
UACC-62 = tested on: UACC-62
SK-MEL-28 = tested on: SK-MEL-28
UO-31 = tested on: UO-31
HOP-92 = tested on: HOP-92
HOP-62 = tested on: HOP-62
MCF7 = tested on: MCF7
ACHN = tested on: ACHN
M14 = tested on: M14
SW-620 = tested on: SW-620
KM12 = tested on: KM12
Hs-578T = tested on: Hs-578T
HCC 2998 = tested on: HCC 2998
RXF 393 = tested on: RXF 393
SK-MEL-5 = tested on: SK-MEL-5
SF-295 = tested on: SF-295
MDA-MB-435 = tested on: MDA-MB-435
SNB-19 = tested on: SNB-19
NCI-H23 = tested on: NCI-H23
SF-268 = tested on: SF-268
NCI-H226 = tested on: NCI-H226
OVCAR-4 = tested on: OVCAR-4
U-251 = tested on: U-251
NCI-H460 = tested on: NCI-H460

`Cc1cccc(/C=N\NC(=S)N2CCCCC2)n1` was tested, and the GI50 (COLO 205) was < 0.01 µM (active), the GI50 (SK-MEL-2) was 0.612 µM (active) and the GI50 (K562) was < 0.01 µM (active). For the same compound, the GI50 (TK-10) was 0.0156 µM (active), the GI50 (EKVX) was 0.673 µM (active) and the GI50 (PC-3) was 0.0435 µM (active). For the same compound, the GI50 (OVCAR-8) was 0.036 µM (active), the GI50 (OVCAR-3) was < 0.01 µM (active) and the GI50 (786-0) was 0.027 µM (active). The GI50 (LOX IMVI) was 0.0681 µM (active), the GI50 (MDA-N) was 0.306 µM (active) and the GI50 (NCI-H522) was < 0.01 µM (active). For the same compound, the GI50 (OVCAR-5) was < 0.01 µM (active), the GI50 (SR) was 0.019 µM (active) and the GI50 (UACC-257) was < 0.01 µM (active). The GI50 (SF-539) was 0.156 µM (active), the GI50 (HT-29) was < 0.01 µM (active) and the GI50 (T47D) was < 0.01 µM (active). The GI50 (A498) was 0.0241 µM (active), the GI50 (MOLT-4) was < 0.01 µM (active) and the GI50 (HCT-15) was 0.0371 µM. For the same compound, the GI50 (Malme-3M) was 0.867 µM (active), the GI50 (NCI/ADR-RES) was 0.0205 µM (active) and the GI50 (CAKI-1) was 0.126 µM (active). The GI50 (A549) was 0.158 µM (active), the GI50 (SK-OV-3) was 0.685 µM (active) and the GI50 (HL-60) was 0.0112 µM (active). For the same compound, the GI50 (HCT-116) was < 0.01 µM (active), the GI50 (DU-145) was 0.362 µM (active) and the GI50 (MDA-MB-231) was < 0.01 µM (active). For the same compound, the GI50 (SN12C) was 0.181 µM (active), the GI50 (IGROV-1) was < 0.01 µM (active) and the GI50 (RPMI-8226) was 0.0128 µM (active). The GI50 (SNB-75) was 0.611 µM (active), the GI50 (CCRF-CEM) was < 0.01 µM (active) and the GI50 (UACC-62) was 0.383 µM (active). The GI50 (SK-MEL-28) was 0.532 µM (active), the GI50 (UO-31) was 0.216 µM (active) and the GI50 (HOP-92) was 0.474 µM (active). The GI50 (HOP-62) was 0.0776 µM (active), the GI50 (MCF7) was < 0.01 µM (active) and the GI50 (ACHN) was 0.159 µM (active). The GI50 (M14) was < 0.01 µM (active), the GI50 (SW-620) was 0.334 µM (active) and the GI50 (KM12) was 0.13 µM (active). For the same compound, the GI50 (Hs-578T) was 26.5 µM (inactive), the GI50 (HCC 2998) was 9.77 µM (inactive) and the GI50 (RXF 393) was 0.145 µM (active). For the same compound, the GI50 (SK-MEL-5) was 0.0229 µM (active), the GI50 (SF-295) was 0.211 µM (active) and the GI50 (MDA-MB-435) was 0.56 µM (active). For the same compound, the GI50 (SNB-19) was 0.665 µM (active), the GI50 (NCI-H23) was 0.0689 µM (active) and the GI50 (SF-268) was 0.0451 µM (active). For the same compound, the GI50 (NCI-H226) was 0.184 µM (active), the GI50 (OVCAR-4) was < 0.01 µM (active) and the GI50 (U-251) was < 0.01 µM (active). The GI50 (NCI-H460) was 0.22 µM (active).

In the case of `CC1(C)CS(=O)(=O)CC(C)(C)C(=N/N)/C1=N\N`, the GI50 (COLO 205) was > 100 µM (inactive), the GI50 (SK-MEL-2) was > 100 µM (inactive) and the GI50 (K562) was > 100 µM (inactive). For the same compound, the GI50 (TK-10) was > 100 µM (inactive), the GI50 (EKVX) was > 100 µM (inactive) and the GI50 (PC-3) was > 100 µM (inactive). The GI50 (OVCAR-8) was > 100 µM (inactive), the GI50 (OVCAR-3) was > 100 µM (inactive) and the GI50 (786-0) was > 100 µM (inactive). For the same compound, the GI50 (LOX IMVI) was > 100 µM (inactive), the GI50 (MDA-N) was > 100 µM (inactive) and the GI50 (NCI-H522) was > 100 µM (inactive). The GI50 (OVCAR-5) was > 100 µM (inactive), the GI50 (SR) was > 100 µM (inactive) and the GI50 (UACC-257) was > 100 µM (inactive). The GI50 (SF-539) was > 100 µM (inactive), the GI50 (HT-29) was > 100 µM (inactive) and the GI50 (T47D) was > 100 µM (inactive). The GI50 (A498) was > 100 µM (inactive), the GI50 (HCT-15) was over 100 µM and the GI50 (Malme-3M) was > 100 µM (inactive). The GI50 (NCI/ADR-RES) was > 100 µM (inactive), the GI50 (CAKI-1) was > 100 µM (inactive) and the GI50 (A549) was > 100 µM (inactive). The GI50 (SK-OV-3) was > 100 µM (inactive), the GI50 (HL-60) was > 100 µM (inactive) and the GI50 (HCT-116) was > 100 µM (inactive). For the same compound, the GI50 (DU-145) was > 100 µM (inactive), the GI50 (SN12C) was > 100 µM (inactive) and the GI50 (IGROV-1) was > 100 µM (inactive). For the same compound, the GI50 (SNB-75) was > 100 µM (inactive), the GI50 (UACC-62) was > 100 µM (inactive) and the GI50 (SK-MEL-28) was > 100 µM (inactive). The GI50 (HOP-92) was > 100 µM (inactive), the GI50 (HOP-62) was > 100 µM (inactive) and the GI50 (MCF7) was > 100 µM (inactive). The GI50 (ACHN) was > 100 µM (inactive), the GI50 (M14) was > 100 µM (inactive) and the GI50 (SW-620) was > 100 µM (inactive). The GI50 (KM12) was > 100 µM (inactive), the GI50 (Hs-578T) was > 100 µM (inactive) and the GI50 (HCC 2998) was > 100 µM (inactive). The GI50 (SK-MEL-5) was > 100 µM (inactive), the GI50 (SF-295) was > 100 µM (inactive) and the GI50 (MDA-MB-435) was > 100 µM (inactive). The GI50 (SNB-19) was > 100 µM (inactive), the GI50 (NCI-H23) was > 100 µM (inactive) and the GI50 (SF-268) was > 100 µM (inactive). The GI50 (OVCAR-4) was > 100 µM (inactive), the GI50 (U-251) was > 100 µM (inactive) and the GI50 (NCI-H460) was > 100 µM (inactive).

With `C[C@]12CC[C@@H]3c4ccc(O)cc4CC[C@H]3[C@@H]1C/C(=C\c1ccncc1)C2=O` the GI50 (COLO 205) was 29.7 µM (inactive), the GI50 (SK-MEL-2) was 12.8 µM (inactive) and the GI50 (K562) was 8.61 µM (inactive). For the same compound, the GI50 (TK-10) was 29.2 µM (inactive), the GI50 (EKVX) was 28.1 µM (inactive) and the GI50 (PC-3) was 11.6 µM (inactive). The GI50 (OVCAR-8) was 18.5 µM (inactive), the GI50 (OVCAR-3) was 14.8 µM (inactive) and the GI50 (LOX IMVI) was 20.7 µM (inactive). For the same compound, the GI50 (MDA-N) was 11.3 µM (inactive), the GI50 (OVCAR-5) was 27.5 µM (inactive) and the GI50 (SR) was 6.32 µM (inactive). For the same compound, the GI50 (UACC-257) was 27.5 µM (inactive), the GI50 (SF-539) was 10.9 µM (inactive) and the GI50 (HT-29) was 19.3 µM (inactive). For the same compound, the GI50 (T47D) was 27.2 µM (inactive), the GI50 (A498) was 34 µM (inactive) and the GI50 (MOLT-4) was 4.71 µM (inactive). For the same compound, the GI50 (HCT-15) was 7.29 µM, the GI50 (Malme-3M) was 14.1 µM (inactive) and the GI50 (NCI/ADR-RES) was 17.5 µM (inactive). The GI50 (CAKI-1) was 33.2 µM (inactive), the GI50 (A549) was 19.1 µM (inactive) and the GI50 (SK-OV-3) was 35.1 µM (inactive). For the same compound, the GI50 (HL-60) was 10.6 µM (inactive), the GI50 (DU-145) was 12.1 µM (inactive) and the GI50 (MDA-MB-231) was 41.4 µM (inactive). The GI50 (IGROV-1) was 15.1 µM (inactive), the GI50 (RPMI-8226) was 8.53 µM (inactive) and the GI50 (SNB-75) was > 100 µM (inactive). The GI50 (CCRF-CEM) was 15.3 µM (inactive), the GI50 (UACC-62) was 10.3 µM (inactive) and the GI50 (SK-MEL-28) was 64.3 µM (inactive). The GI50 (UO-31) was 35.6 µM (inactive), the GI50 (HOP-92) was 23.1 µM (inactive) and the GI50 (HOP-62) was 20.3 µM (inactive). For the same compound, the GI50 (MCF7) was 12 µM (inactive), the GI50 (ACHN) was 20.1 µM (inactive) and the GI50 (M14) was 20.4 µM (inactive). The GI50 (SW-620) was 27.5 µM (inactive), the GI50 (KM12) was 13.7 µM (inactive) and the GI50 (Hs-578T) was 14.2 µM (inactive). The GI50 (HCC 2998) was 30.6 µM (inactive), the GI50 (RXF 393) was 20.4 µM (inactive) and the GI50 (SK-MEL-5) was 8.04 µM (inactive). For the same compound, the GI50 (SF-295) was 24.9 µM (inactive), the GI50 (MDA-MB-435) was 4.46 µM (inactive) and the GI50 (SNB-19) was 38.5 µM (inactive). For the same compound, the GI50 (NCI-H23) was 29 µM (inactive), the GI50 (SF-268) was 30.1 µM (inactive) and the GI50 (NCI-H226) was 19.3 µM (inactive). The GI50 (OVCAR-4) was 15.6 µM (inactive), the GI50 (U-251) was 16.1 µM (inactive) and the GI50 (NCI-H460) was 9.4 µM (inactive).
